# Measurements taken from patent US10413559B2, “Method for treating demyelinating disease” (OCHANOMIZU UNIVERSITY, priority 2013, dated 2019).
# What was measured:
# [1] = tested on: demyelination model mice (0.2% cuprizone); experiment: Myelin level by Black Gold staining in cuprizone demyelination model mice (Example 1); format: in vivo, C57BL/6 mice; details: intraperitoneal 40 μg/200 μl saline/day for 5 weeks, FIG. 2
# Protocol: 10-week-old male C57BL/6 mice were fed with a mash feed containing 0.2% cuprizone for five weeks until the most significant demyelination occurred, so as to produce demyelination model mice. cPA and carba-cPA (cPA) powders were each dissolved in a saline, and the obtained solutions were each administered intraperitoneally at a dose of 40 μg/200 μl saline/day to the mice every day for 5 weeks. On the other hand, to negative control mice, a saline (200 μl/day) was intraperitoneally administered in the same manner as described above. The mice, to which the test compound had been administered, were subjected to perfusion fixation with 4% paraformaldehyde, and sections to be used for frozen tissue staining (30 μm) were then prepared in a cryostat (FIG. 1). The level of myelin in each mouse was measured by Black Gold staining, and the demyelination level was then measured based on the stained level (FIG. 2).
# [2] = tested on: demyelination model mice (0.2% cuprizone); experiment: Test of motor function impairment using rotarod; format: in vivo, C57BL/6j mice; details: intraperitoneal 1.6 mg/kg/day for 5 weeks, 28 rpm, 300 seconds, FIG. 9, FIG. 10
# Description: 10-week-old male C57BL/6j mice (Tokyo Laboratory Animals Science Co., Ltd., Tokyo, Japan) were fed by the discretionary intake of a mash feed (CLEA Japan, Inc.) that contained 0.2% cuprizone (biscyclohexanone oxalyl hydrazone; Merck KGaA, Darmstadt, Germany) for 5 weeks until demyelination progressed most, so as to produce demyelination model mice involving demyelination caused by oligodendrocyte-specific cell death. The cPA used in the experiment was the same cPA (16:0) as that used in Example 1, and the carba-cPA was 2 ccPA (16:1). The cPA and 2 ccPA were chemically purified (Biochimica et Biophysica Acta, Emi Nozaki 2011), and were then dissolved in a 0.9% saline. […] The locomotion time on the rod was evaluated by measuring the time required for the mice to fall from the rotating rod within a record time of 300 seconds. Moreover, even after the mice had fallen from the rod, they were forced to continue their activity immediately after the falling, so that a total number of the activities from falling from the rod to holding on to the rod for 300 seconds (a number of falls and flips) was measured and evaluated. The data of the test of motor function impairment were analyzed according to a non-parametric method using a Kruskal-Wallis test. All of other data were analyzed according to a one-way ANOVA method using a Newman-Keulis test. […]
# [3] = tested on: GFAP, Iba1, PDGFRa, P2rx7, Nlrp3 gene expression in corpus callosum; experiment: Genetic analysis using Q-PCR of corpus callosum tissues; format: in vivo, C57BL/6j mice; details: cuprizone mice; intraperitoneal 1.6 mg/kg/day for 5 weeks; FIG. 6-8
# Description: 10-week-old male C57BL/6j mice (Tokyo Laboratory Animals Science Co., Ltd., Tokyo, Japan) were fed by the discretionary intake of a mash feed (CLEA Japan, Inc.) that contained 0.2% cuprizone (biscyclohexanone oxalyl hydrazone; Merck KGaA, Darmstadt, Germany) for 5 weeks until demyelination progressed most, so as to produce demyelination model mice involving demyelination caused by oligodendrocyte-specific cell death.
# To obtain mouse corpus callosum tissues to be used for genetic analysis, mouse brain was removed, and the corpus callosum tissues were then collected from the brain. […]
# mRNA was extracted from the frozen corpus callosum tissues using ISOGEN (Nippon Gene Co., Ltd., Tokyo, Japan), was then dissolved in RNase free molecular grade water (Takara Bio Inc., Shiga, Japan), and was then preserved at −80° C. […] Gene expression was detected using 7900 Sequence Detection System (Applied Biosystems). […] The gene expression level was calculated by a ΔΔCT method. Data were analyzed by a relative quantification method. A relative change in the gene expression was analyzed, while setting the gene expression level in a control mouse at 100%.
# [4] = tested on: demyelination model mice (0.2% cuprizone), corpus callosum; experiment: Histological staining (Black Gold II) of corpus callosum and evaluation of demyelination (Example 2); format: in vivo, C57BL/6j mice; details: intraperitoneal 1.6 mg/kg/day for 5 weeks, FIG. 3, FIG. 4
# Description: 10-week-old male C57BL/6j mice (Tokyo Laboratory Animals Science Co., Ltd., Tokyo, Japan) were fed by the discretionary intake of a mash feed (CLEA Japan, Inc.) that contained 0.2% cuprizone (biscyclohexanone oxalyl hydrazone; Merck KGaA, Darmstadt, Germany) for 5 weeks until demyelination progressed most, so as to produce demyelination model mice involving demyelination caused by oligodendrocyte-specific cell death. To obtain tissues to be used for histological analysis, a mouse was subjected to perfusion fixation through the heart with 4% paraformaldehyde, and the resulting brain tissues were then excised from the mouse. Thereafter, the tissues were immobilized and infiltrated with 30% sucrose. Thereafter, a frozen tissue block was prepared and was then sliced in a cryostat. The cPA used in the experiment was the same cPA (16:0) as that used in Example 1, and the carba-cPA was 2 ccPA (16:1). The cPA and 2 ccPA were chemically purified (Biochimica et Biophysica Acta, Emi Nozaki 2011), and were then dissolved in a 0.9% saline. […] For the analysis of the level of myelin, using Image J 1.46r software, the stained level in the corpus callosum area was measured, and the demyelination level was then evaluated, while setting the control as 100%.
# [5] = tested on: cultured animal cells; details: Murakami-Murofushi et al. 1992; cited from earlier work
# [6] = molecular target: T1, DNA polymerase α (Homo sapiens, UniProt P09884); details: Murakami-Murofushi et al. 1992; cited from earlier work
# T1 sequence (P09884 1-1462): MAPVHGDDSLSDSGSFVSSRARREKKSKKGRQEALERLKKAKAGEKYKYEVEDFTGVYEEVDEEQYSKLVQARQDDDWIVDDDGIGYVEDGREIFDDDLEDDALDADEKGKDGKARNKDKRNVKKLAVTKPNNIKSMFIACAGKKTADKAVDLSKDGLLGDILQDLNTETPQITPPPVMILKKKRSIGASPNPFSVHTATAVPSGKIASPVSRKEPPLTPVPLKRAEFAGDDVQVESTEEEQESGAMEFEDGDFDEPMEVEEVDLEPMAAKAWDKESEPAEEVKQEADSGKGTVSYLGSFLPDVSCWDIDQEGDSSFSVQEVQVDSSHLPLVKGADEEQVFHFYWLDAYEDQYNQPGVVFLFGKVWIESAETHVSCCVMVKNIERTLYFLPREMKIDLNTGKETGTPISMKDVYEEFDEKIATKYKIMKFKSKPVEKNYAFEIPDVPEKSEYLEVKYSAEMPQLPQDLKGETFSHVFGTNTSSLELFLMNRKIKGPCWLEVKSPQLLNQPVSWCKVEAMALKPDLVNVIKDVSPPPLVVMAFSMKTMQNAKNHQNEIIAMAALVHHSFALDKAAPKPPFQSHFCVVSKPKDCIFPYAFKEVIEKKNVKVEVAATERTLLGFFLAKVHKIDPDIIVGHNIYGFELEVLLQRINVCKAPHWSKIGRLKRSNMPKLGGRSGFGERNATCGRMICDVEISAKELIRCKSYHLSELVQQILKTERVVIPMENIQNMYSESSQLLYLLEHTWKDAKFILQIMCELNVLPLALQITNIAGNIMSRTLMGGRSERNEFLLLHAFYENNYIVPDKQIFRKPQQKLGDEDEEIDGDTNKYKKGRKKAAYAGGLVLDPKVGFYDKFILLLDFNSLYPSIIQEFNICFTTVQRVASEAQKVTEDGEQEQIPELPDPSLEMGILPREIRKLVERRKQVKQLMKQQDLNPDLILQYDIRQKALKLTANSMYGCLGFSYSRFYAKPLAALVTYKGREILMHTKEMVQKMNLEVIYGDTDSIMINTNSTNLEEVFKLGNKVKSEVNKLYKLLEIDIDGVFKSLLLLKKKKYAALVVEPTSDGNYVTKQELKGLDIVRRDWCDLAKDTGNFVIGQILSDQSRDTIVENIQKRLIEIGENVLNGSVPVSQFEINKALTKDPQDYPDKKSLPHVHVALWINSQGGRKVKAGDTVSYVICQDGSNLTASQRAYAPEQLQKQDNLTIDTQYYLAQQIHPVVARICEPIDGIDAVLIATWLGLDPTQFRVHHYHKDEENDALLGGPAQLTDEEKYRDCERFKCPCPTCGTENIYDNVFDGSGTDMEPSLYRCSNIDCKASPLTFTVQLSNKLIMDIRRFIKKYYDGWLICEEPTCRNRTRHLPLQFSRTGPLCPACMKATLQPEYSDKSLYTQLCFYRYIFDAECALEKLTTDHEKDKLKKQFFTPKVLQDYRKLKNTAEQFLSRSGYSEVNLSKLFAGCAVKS
SMILES,level of myelin (Black Gold staining) versus control mouse [1],motor function impairment (rotarod) [2],nerve inflammation (gene expression by Q-PCR) [3],demyelination level in corpus callosum (Black Gold II staining) [4],proliferation of cultured animal cells [5],activity of DNA polymerase α [6]
"CCCCCCCCC=CCCCCCCCC(=O)OCC1COP(=O)(O)C1 (stereo not shown) [2 ccPA (18:1), oleoyl 2-carba-cPA]",the same results as in the case of cPA (16:0) and 2 ccPA (16:1) were obtained,–,–,–,–,–
"CCCCCC/C=C\CCCCCCCC(=O)OCC1COP(=O)(O)C1 (stereo not shown) [2 ccPA, palmitoleoyl 2-carba-cPA]",higher than the level of myelin in a control mouse,motor function impairment is improved,nerve inflammation is suppressed,demyelination is suppressed,–,–
CCCCCC[C@@H]1C[C@@H]1CCCCCCCC(=O)OC[C@@H]1COP(=O)([O-])O1.[Na+] [PHYLPA],–,–,–,–,suppressing proliferation of cultured animal cells,suppressing the activity of DNA polymerase α
